Results from a melting point compilation (Tetko et al.; mined from patent text by program, amines drawn as free bases though some values may be those of a salt).

| melting point | SMILES |
| --- | --- |
| 102 to 110 °C | O=C(O)Cc1ccc(OCCNC(=O)C2Cc3ccccc3N2S(=O)(=O)c2ccc(-c3ccc(F)cc3)cc2)c(Cl)c1 (stereo not drawn) |
| 232 to 234 °C | CCn1cc(C(=O)O)c(=O)cc1-c1ccc(OC)c(OC)c1 |
| 46 to 48 °C | CCCCCN1Cc2cccc(Cl)c2S1(=O)=O |
| 149 to 151 °C | Cc1noc(-c2ccccc2)c1CCC(N)=O |
| 48.6 °C | CCCc1cccc(-c2nc(C(C)C)n(C)n2)n1 |
| 162 to 163 °C | Cc1cc(C)c2c(c1)c(-c1ccccc1Cl)c(C(=O)O)c(=O)n2C |
| 265 to 268 °C | CCc1noc(-c2cc3c(-c4cccs4)nccc3[nH]c2=O)n1 |
| 238 to 241 °C | c1cnn(Cc2ccc3c(c2)Cc2c(-c4ccsc4)n[nH]c2-3)n1 |
| 87 to 91 °C | CC(C)OCc1c(S(C)(=O)=O)ccc(Br)c1Cl |
| 203 to 205 °C | CNc1nc2ccc(CCc3nc4cc(OC)ccn4c3C)cc2o1 |
| 208 °C | CC(C)(C)CNS(=O)(=O)c1cccc(NC(=O)c2cnn3c(C(F)F)cc(-c4ccc(C(F)(F)F)cc4)nc23)c1 |
| 122 to 124 °C | CCN(C)c1ccc(C(=O)c2ccc(N(C)CC)cc2)cc1 |
| 208 °C | COc1ccccc1S(=O)(=O)c1c(NS(=O)(=O)c2ccc(C(C)(C)C)cc2)ncnc1OCCOc1ncc(Br)cn1 |
| 119 to 121 °C | O=c1c2ccccc2cc(-c2ccc(F)cc2)n1CCF |
| 101 to 102 °C | CCNc1cc(Oc2cccc(C(F)(F)F)c2)nc(C(=O)NN=CC(F)(F)C(F)(F)F)c1 |
| 179 °C | O=C(Nc1ccccc1S(=O)(=O)N1CCCCC1)N[C@@H](Cc1ccc(Nc2nccc3ccncc23)cc1)C(=O)O |
| 193 to 201 °C | N#Cc1cc([N+](=O)[O-])ccc1C=C1C=CN(Cc2ccccc2[N+](=O)[O-])C=C1 |
| 159 to 161 °C | N#CCCNC(=O)c1cccc(-c2ccc3occ(-c4ccc(Cl)cc4Cl)c3c2)c1 |
| 162 to 164 °C | CC1NC2(c3ccccc3)c3ccccc3C(=O)N2C1C (stereo not drawn) |
| 191 to 192 °C | CCOC(=O)N1CCN(c2cc3ccccc3c(=O)[nH]2)CC1 |
| 112 °C | Cn1ccnc1COc1ccc(-c2cc(-c3c[nH]nc3-c3ccccn3)ccn2)cc1 |
| 108 to 110 °C | CCc1ccccc1OC(CC)C(=O)OC1CC(O)C=C2C=CC(C)C(CCC3CC(O)CC(=O)O3)C21 (mixture of isomers) |
| 134 to 136 °C | COc1cc2c(c3c1OC(C)(C)C3)C(c1cccc(NS(=O)(=O)N(C)C)c1)=NC(C)(C)C2 |
| 102 to 108 °C | Cc1cccc(CCOc2nc(N)c3ncn(C4OC(CO)C(O)C4O)c3n2)c1 (stereo not drawn) |

| melting point | SMILES |
| --- | --- |
| 234 °C | O=C(Nc1cccc(S(=O)(=O)NCC2CC2)c1)c1cnn2c(C(F)(F)F)cc(-c3ccc(C(F)(F)F)cc3)nc12 |
| 173 to 175 °C | NC(=S)CCn1nc(-c2ccccc2)ccc1=O |
| 124 to 126 °C | CCCCc1ccc(N2CCN(C(=O)Nc3nc4ccccc4nc3OC)CC2)cc1 |
| 83 to 84 °C | CCOC(=O)c1cc2c(nc1COc1ccc(C=O)cc1)CCCCC2 |
| 95 to 96 °C | O=C(NCCc1ccccc1)c1ccc(Cl)nc1 |
| 237 to 240 °C | O=C(O)c1ccc(NCc2cncc3ccccc23)cc1 |
| 127 to 128 °C | CC(=O)Oc1cc(OC(C)=O)c(C)c(C(=O)OCC(Cl)(Cl)Cl)c1C |
| 164 to 166 °C | COC(=O)c1c(C(=O)OC)c(-c2ccc(Cl)cc2)n2c1Cc1ccccc1C2 |
| 171 to 174 °C | CC(C)(C)OC(=O)N1C[C@@H](P(C2CCCCC2)C2CCCCC2)C[C@H]1CP(c1ccccc1)c1ccccc1 |
| 83 °C | N#Cc1ccc(Cc2c[nH]nn2)cc1 |
| 144 °C | CC1Oc2c(C#N)cc(F)cc2C=C1n1nc(C(F)(F)F)n(C)c1=S (stereo not drawn) |
| 208 to 209 °C | O=C(Nc1ccc(OC(F)(F)F)cc1)NC1CCN(C(=O)c2ccc(Cl)nc2)CC1 |
| > 300 °C | CCOC1c2ccccc2-c2[nH]c(=O)c(=O)[nH]c21 (stereo not drawn) |
| 114 °C | Cc1ccc2c(c1)[nH]c(=O)n2CCCO |
| 280 °C | CCC1(O)c2cc3n(c(=O)c2COC1O)Cc1cc2ccccc2nc1-3 (stereo not drawn) |
| 93 to 95 °C | CON(C)C(=O)Nc1ccc(CN2OCC(C)(C)C2=O)c(Cl)c1 |
| 178 to 182 °C | CCCc1c(OCCCCCOc2ccc(C(=O)Cc3ccccc3C(=O)O)cc2CCC(=O)O)ccc2c1OCCC2=O |
| 195 to 197 °C | Nc1ncc(C2OC(CO)C(O)C2O)c(Cl)n1 (stereo not drawn) |
| 172 to 173 °C | COC1(C(=O)O)C=CC(OCc2ccccc2)=CC1 (stereo not drawn) |
| 204 to 206 °C | CCn1c(=O)c2c(nc(/C=C/c3ccc(OC)c(O)c3)n2C)n(CC)c1=O |
| 239 to 242 °C | CCCc1nc2c(C#N)ncc(C)c2[nH]1 |
| 248 to 250 °C | COc1ccc2nccc(NC(=O)N3CCN(CCc4ccc5c(c4)NC(=O)CS5)CC3)c2n1 |
| > 250 °C | N#Cc1c(N)c2ccccc2[nH]c1=O |
| 60 to 62 °C | Cc1cc(O)c(C)cc1O |

| melting point | SMILES |
| --- | --- |
| 165 to 167 °C | CN(C(=O)CN1C(=O)C(NC(=O)Nc2cccc(C#N)c2)N=C(CN2CCOCC2)c2ccccc21)c1ccccc1 (stereo not drawn) |
| 123 to 124 °C | COC(=O)c1c(N)cc(Cl)c(Cl)c1Cl |
| 128 to 129 °C | CCOC1Oc2ccc3cc(C#N)c(Cn4cncn4)cc3c2C1(C)C (stereo not drawn) |
| 212 °C | CC1C(=O)NC2=NC=CCN21 (stereo not drawn) |
| 200 to 202 °C | Cc1ccc(Cl)cc1NC(=O)NCC1(c2ccccc2)CCCCC1 |
| 90 °C | CN1CCC(OC(c2cccc(-c3ccn[nH]3)c2)c2nc3ccccc3s2)CC1 (stereo not drawn) |
| 119 to 121 °C | CCOC(=O)C(CC)Oc1ccc(-c2coc3cc4c(cc3c2=O)OCO4)cc1 (stereo not drawn) |
| 57 °C | c1ccc2c(c1)CC1=C2CCCC1 |
| 89 to 92 °C | Cn1nc(C(=O)C(=O)c2ccccc2)ccc1=O |
| 103 °C | CSC(=N)c1cc(Oc2ccc(C(F)(F)F)cc2Cl)ccc1[N+](=O)[O-] |
| 197 to 200 °C | O=C1CCc2cc(NCC(=O)N3CCC(Cc4ccc(F)cc4)CC3)ccc2N1 |
| > 310 °C | Cc1nc(NCC(F)(F)F)c2nc(-c3ccccc3)cc-2[nH]1 |
| 170 to 172 °C | CCc1nnc(-c2cn3c(C)c(CC)c(OC)nc3n2)o1 |
| 108 to 111 °C | CC1=C(C)c2cc(Br)ccc2Sc2ccccc21 |
| 130 to 132 °C | Cc1ccc(C(O)CN(C)Cc2cc3c(=O)c(C(=O)NCc4ccc(Cl)cc4)cn(C)c3o2)o1 (stereo not drawn) |
| 86 to 87 °C | Cc1ccc(-c2nc(Cl)cc(-c3ccccc3)n2)cc1 |
| 237 to 240 °C | CCN(CC)C(=O)c1cc(-c2ccccc2)c(=O)[nH]c1-c1c(Cl)cccc1C#N |
| 180 to 182 °C | Cc1[nH]c2cccc(/C=C/C(=O)OCc3ccccc3)c2c1Cc1cccnc1 |
| 144 to 146 °C | O=C(Nc1cc(Cl)cc(C(F)(F)F)c1)Oc1ccc([N+](=O)[O-])cc1 |
| 143 to 145 °C | O=C(NCc1cccc(C(F)(F)F)c1)c1ccc2n1Cc1ccccc1N(C(=O)COc1ccc(Cl)cc1)C2 |
| 233 to 235 °C | CC(C)(C)c1ccc(-c2nnc(-c3ccc(C(=O)O)cc3[N+](=O)[O-])o2)cc1 |
| 213 to 215 °C | CCOc1nc2cccc(C(=O)O)c2n1Cc1ccc(-c2ccccc2C(=O)O)cc1 |
| 151 to 153 °C | Cc1cc(O)c(C2CCCCC2)cc1S(=O)c1cc(C2CCCCC2)c(O)cc1C |
| 54 to 60 °C | CC(C)(C(=O)N1CCc2ccccc2C1)c1ccc(S(=O)(=O)/C=C/C#N)cc1 |

| melting point | SMILES |
| --- | --- |
| 102 to 104 °C | Cc1cc(Oc2cccc(C(F)(F)F)c2)nn1C(=O)Nc1ccc(F)c(F)c1F |
| 109 to 112 °C | CC(C)c1nc(C(=O)NC2CC2)c(C(=O)O)o1 |
| 87.5 °C | FC(F)(F)Sc1ncn(-c2c(Cl)cc(C(F)(F)F)cc2Cl)c1Br |
| 224 to 226 °C | Oc1ccc(-c2ccc(O)c3cc(O)c(O)cc23)cc1O |
| 144 to 145 °C | CCOCCC(Cc1ccc(NC(=O)NC(=O)c2ccc(C#N)cc2)cc1)C(=O)OC(C)(C)C (stereo not drawn) |
| 176 to 178 °C | CC(=O)NC[C@H]1CN(c2cc(F)c(N3CCC(Cc4nnn[nH]4)CC3)c(F)c2)C(=O)O1 |
| 120 to 134 °C | COCCNC(=O)c1cccc(-c2cccc3cc(Cc4cccc(Cl)c4)sc23)c1 |
| 141 to 142 °C | O=C(NCCCC(=O)N1CCCC1=O)c1cc(Br)no1 |
| 130 to 132 °C | COc1ccc(Br)c(C=C(C#N)C(=O)O)c1OC |
| 139 °C | C=C1C=Cc2cc(C(=O)Nc3ccccc3)ccc2OC1 |
| 216 °C | CS(=O)(=O)Nc1ccc(-c2ccc(C(=O)NCCCCN3CCC(c4ccc5c(c4OCCO)CCCC5)CC3)cc2)cc1 |
| 108 to 109 °C | COC(=O)Cc1ccccc1OCc1cc(OCc2nc(-c3ccccc3)sc2C)no1 |
| 234 °C | O=C1NCCc2ccc(OCCCCN3CCN(c4cccc5ccc(F)cc45)CC3)nc2N1 |
| 95 to 97 °C | CC(C)NCC(O)COc1ccc2c(c1)C(=O)OC2 (stereo not drawn) |
| 73 to 75 °C | CCCCCCCCCCCCOc1ccc(C2SCCCS2)cc1OCCCCCCCCCCCC |
| 125 to 126 °C | COC(=O)c1nn(C)nc1C(=O)O |
| 242 to 243 °C | CCc1noc(-c2cn(-c3nc[nH]n3)cn2)n1 |
| 107 °C | CC1(C)c2ccccc2S(=O)(=O)N1CCCCl |
| 210 to 211 °C | CC(=O)Nc1c(N)cc(C(=O)O)c(O)c1Br |
| > 290 °C | CCCn1c(=O)[nH]c(=S)c2[nH]c(C=Cc3ccccc3)nc21 |
| 216 to 218 °C | CCOC(=O)c1cnc2c3cc(NC(=O)C(C)C(C)CC)ccc3c(C)cn2c1=O (stereo not drawn) |
| 120 to 121 °C | CN(C)CCCOc1ccc2c(c1)SCC(=O)N2 |
| 228 to 231 °C | FC(F)c1nc2ccccc2n1-c1nc(Oc2ccccc2)nc(N2CCOCC2)n1 |

| SMILES | melting point |
| --- | --- |
| CCCCn1c(C)c(C(=O)c2ccccc2C(=O)O)c2ccccc21 | 88 to 92 °C |
| CCc1c(C(=O)C(N)=O)c2c(NCC(=O)O)cccc2n1Cc1ccccc1 | 151 to 157 °C |
| CCC1C(C)=NN=C(c2ccc(OC)c(OC)c2)c2cc(C)ccc21 (stereo not drawn) | 156 to 158 °C |
